Laboratory results from patent US10471020B2, “Nanoparticles with protected interiors, and methods of use thereof” (Universidade de Santiago de Compostela, priority 2016, dated 2019).

Key:
[1] = tested on: Caco-2 cells; experiment: Cytotoxicity study on Caco-2 cells (MTS assay); format: cell-based, Human; conditions: Caco-2, 2 hour incubation
Experimental: Culture of Caco-2 cells. Caco-2 cells were grown in DMEM high glucose with L-glutamine supplemented with 10% heat inactivated fetal bovine serum, 1% penicillin (100 U/mL), streptomycin (100 micrograms/mL), and 1% NEAA solution.
Cytotoxicity study on Caco-2 cells. Cytotoxicity was determined using a MTS assay as an indicator of cell viability. Cell viability was assessed after the co-incubation of 10,000 Caco-2 cells/well on a 96-well tissue cultured plate (Costar® Corning®) with the aforementioned formulations in dispersion in culture DMEM medium supplemented with 4 mM of glutamine, 100 U/mL of penicillin, 100 microgram/mL of streptomycin and […] heat inactivated fetal bovine serum. […] The EC50 value for the different formulations were calculated from the dataset by non-linear regression analysis using GraphPad Prism.

[2] = tested on: human intestinal tissue (jejunal); experiment: Toxicity in human intestinal tissue in Ussing chambers (electrophysiology, forskolin response); conditions: Ussing chamber
From the text: Toxicity and permeability in human intestinal tissue. Jejunal tissue samples were collected from patients undergoing laparoscopic Roux-en-Y gastric bypass. Patients had given full informed consent. The study has been reviewed and approved by a regional ethical review board. Tissue samples were immediately transferred into a vessel containing cold, oxygenated Krebs-Ringer buffer and quickly transported to the laboratory. Arriving, the epithelium was dissected away from sub-epithelial tissues and mounted in horizontal as well as vertically oriented Ussing chambers with 9 mm openings between the two chambers. The basolateral chamber was filled with glucose containing Krebs-Ringer buffer, while the glucose in the apical chamber was substituted with mannitol. This is to avoid SGLT-induced tight junction opening. […] Electrophysiology of the tissue was monitored throughout the experiment to assure continued tissue viability. […] Viable tissue with oxidative metabolism will form cAMP in response to forskolin leading to an opening of CFTR C1 channels, the response was monitored as changes in potential difference and short-circuit current over the epithelium. The permeability of fluorescently labeled nanoparticles was analyzed in a plate reader and the apparent permeability rate constant (Papp) was calculated.

Compound	cytotoxicity sequence of tested products [1]	forskolin response [2]	cytotoxicity [1]
CCCCCCCCCCCC(=O)N[C@H](CCCNC(=N)N)C(=O)N[C@H](CCCNC(=N)N)C(=O)N[C@H](CCCNC(=N)N)C(=O)N[C@H](CCCNC(=N)N)C(=O)N[C@H](CCCNC(=N)N)C(=O)N[C@H](CCCNC(=N)N)C(=O)N[C@H](CCCNC(=N)N)C(=O)N[C@H](CCCNC(=N)N)C(N)=O [Formulation C12-R8]	Chol-R8>C12-R8>ENCPs>diblock or branched PGA-PEG	no evident change	
CC(C)CCC[C@@H](C)[C@H]1CC[C@H]2[C@@H]3CC=C4C[C@@H](OC(=O)N[C@H](CCCNC(=N)N)C(=O)N[C@H](CCCNC(=N)N)C(=O)N[C@H](CCCNC(=N)N)C(=O)N[C@H](CCCNC(=N)N)C(=O)N[C@H](CCCNC(=N)N)C(=O)N[C@H](CCCNC(=N)N)C(=O)N[C@H](CCCNC(=N)N)C(=O)N[C@H](CCCNC(=N)N)C(N)=O)CC[C@]4(C)[C@H]3CC[C@]12C [Chol-R8]	Chol-R8>C12-R8>ENCPs>diblock or branched PGA-PEG		highest cytotoxicity
